This note sets out measurements from patent US7314747B1, “SMRT co-repressors, transcriptional co-repressors that interact with nuclear hormone receptors” (The Salk Institute for Biological Studies, priority 1995, dated 2008).

For assay [1], the target named is T1, EcR:USP complex with SMRTER ERID1/ERID2 (Drosophila melanogaster, UniProt P34021).
T1 construct: made in house; host or cells: EcR and USP: TNT (Promega) coupled transcription-translation; GST fusions: E. coli DH5
T1 sequence (P34021 1-878): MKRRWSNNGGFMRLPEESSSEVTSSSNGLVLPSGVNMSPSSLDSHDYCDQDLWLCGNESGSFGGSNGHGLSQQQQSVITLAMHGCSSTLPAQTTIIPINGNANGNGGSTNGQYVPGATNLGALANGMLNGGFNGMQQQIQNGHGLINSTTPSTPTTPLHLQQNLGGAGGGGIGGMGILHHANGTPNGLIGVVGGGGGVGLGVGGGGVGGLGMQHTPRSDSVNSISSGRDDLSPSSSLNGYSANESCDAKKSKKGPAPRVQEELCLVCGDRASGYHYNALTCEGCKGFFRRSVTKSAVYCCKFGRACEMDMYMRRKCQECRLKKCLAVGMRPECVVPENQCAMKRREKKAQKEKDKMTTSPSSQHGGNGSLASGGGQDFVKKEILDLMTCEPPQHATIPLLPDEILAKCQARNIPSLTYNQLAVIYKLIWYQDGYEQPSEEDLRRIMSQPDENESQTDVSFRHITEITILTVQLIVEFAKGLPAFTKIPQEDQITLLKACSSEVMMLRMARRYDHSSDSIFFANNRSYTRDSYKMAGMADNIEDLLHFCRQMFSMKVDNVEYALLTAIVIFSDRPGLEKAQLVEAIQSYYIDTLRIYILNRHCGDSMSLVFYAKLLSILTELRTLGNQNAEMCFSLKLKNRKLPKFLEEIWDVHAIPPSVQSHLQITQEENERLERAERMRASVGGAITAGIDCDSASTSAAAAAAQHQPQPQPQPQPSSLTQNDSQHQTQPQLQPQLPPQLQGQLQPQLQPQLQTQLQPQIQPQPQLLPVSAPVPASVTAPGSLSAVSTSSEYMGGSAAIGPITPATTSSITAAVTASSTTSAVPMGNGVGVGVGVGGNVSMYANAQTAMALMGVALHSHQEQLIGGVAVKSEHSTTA
T1 sequence (P20153 1-508 partner): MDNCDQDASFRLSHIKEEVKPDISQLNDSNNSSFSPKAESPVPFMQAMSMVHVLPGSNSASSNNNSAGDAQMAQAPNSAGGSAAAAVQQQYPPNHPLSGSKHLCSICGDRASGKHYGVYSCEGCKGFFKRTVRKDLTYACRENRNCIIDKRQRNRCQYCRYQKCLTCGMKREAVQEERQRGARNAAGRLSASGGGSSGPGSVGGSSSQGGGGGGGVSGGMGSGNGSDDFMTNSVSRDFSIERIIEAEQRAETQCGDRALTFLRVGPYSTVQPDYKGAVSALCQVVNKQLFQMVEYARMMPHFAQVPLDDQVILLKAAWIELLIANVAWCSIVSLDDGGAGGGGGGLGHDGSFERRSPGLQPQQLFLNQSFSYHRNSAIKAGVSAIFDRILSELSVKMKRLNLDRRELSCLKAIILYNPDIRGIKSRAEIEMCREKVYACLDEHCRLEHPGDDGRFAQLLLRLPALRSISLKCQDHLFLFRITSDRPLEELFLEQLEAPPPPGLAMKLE
Briefly: In vitro GST pull-down of 35S-labeled EcR by GST-ERID1 / GST-ERID2. The format is binding. Conditions: 3 μM, when USP is present. Here is the method: Glutathione S-transferase fusion proteins, including GST-X, GST-ERID1 (amino acids 1698-2063 of SEQ ID NO:1), and GST-ERID2 (amino acids 2951-3038 of SEQ ID NO:1), were expressed in E. coli DH5 cells, and extracts were affinity purified by binding to glutathione Sepharose 4B beads. Bound proteins used as affinity matrices in pull-down experiments were first equilibrated with the binding buffer (20 mM HEPES [pH 7.9], 150 mM NaCl, 1 mM EDTA, 4 mM MgCl2, 1 mM DTT, 0.06% NP40, 10% Glycerol, 0.25 mM PMSF, 1 mg BSA). For pull-down assays using GST-ERID1 (amino acids 1698-2063 of SEQ ID NO:1) and GST-ERID2 (amino acids 2951-3038 of SEQ ID NO:1), additional hsp27EcRE (0.05 μg/ml) was added to the binding buffer. In this experiment, […] of 50% GST-protein beads slurry, containing approximately 1 μg of proteins, were incubated with 10 μl of 35S-methionine-labeled proteins in 300 μl of the binding buffer (with or without 3 μM of MurA as indicated) for 30 min at room temperature. After the incubation, beads were washed three times with the binding buffer (with or without ligand) and resuspended in SDS-PAGE sample buffer before loading. After electrophoresis, bound radio-labeled proteins were visualized by autoradiography. […]

Assay [2] concerns the target T2, EcR interaction with E52 or SMRT (Drosophila melanogaster, UniProt P34021).
T2 construct: the region corresponding to amino acids 223-878 of EcRB1; expressed in transfected cells; host or cells: Y190 yeast cells
T2 sequence (P34021 223-878): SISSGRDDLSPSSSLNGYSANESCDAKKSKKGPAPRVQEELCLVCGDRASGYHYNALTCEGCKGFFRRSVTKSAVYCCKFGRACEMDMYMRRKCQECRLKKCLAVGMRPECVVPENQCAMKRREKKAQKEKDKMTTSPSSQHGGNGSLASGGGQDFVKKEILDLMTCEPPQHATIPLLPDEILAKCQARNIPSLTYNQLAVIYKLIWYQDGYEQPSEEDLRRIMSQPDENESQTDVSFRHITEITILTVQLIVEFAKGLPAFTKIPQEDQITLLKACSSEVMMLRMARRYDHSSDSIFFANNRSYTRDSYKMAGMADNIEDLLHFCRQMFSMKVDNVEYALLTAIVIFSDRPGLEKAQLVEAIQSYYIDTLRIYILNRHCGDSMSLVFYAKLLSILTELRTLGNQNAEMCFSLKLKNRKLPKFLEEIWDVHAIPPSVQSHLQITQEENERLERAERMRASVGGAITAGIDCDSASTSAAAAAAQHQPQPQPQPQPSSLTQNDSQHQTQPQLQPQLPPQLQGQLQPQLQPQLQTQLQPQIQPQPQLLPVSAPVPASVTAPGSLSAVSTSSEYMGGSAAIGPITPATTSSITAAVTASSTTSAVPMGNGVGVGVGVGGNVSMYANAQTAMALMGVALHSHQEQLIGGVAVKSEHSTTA
The experiment in a line: Yeast two-hybrid assay, E52-EcR or SMRT-EcR interaction. Conditions: 3 μM ligand. The class given is cell-based. Here is the method: Transformants were selected onto DO-Leu-Trp-His plates containing 40 mM 3-aminotriazole (Sigma) for 3-4 days. Surviving yeast colonies were picked as primary positives and restreaked on selection plates to isolate single clones. Activation domain plasmids were rescued from the selected positive transformants for further analysis. Each clone was evaluated by testing its potential interaction with several other nuclear receptors using the yeast two-hybrid assays. […] Quantitative liquid assay of β-galactosidase was performed on positive clones 16 hr after treating the yeast cells with no ligand, or with 3 μM ligand.

Consider `CC(C)CC[C@@H](O)[C@](C)(O)[C@H]1CC[C@@]2(O)C3=CC(=O)[C@]4(O)C[C@@H](O)[C@@H](O)C[C@]4(C)[C@H]3[C@H](O)C[C@]12C` [Muristerone A], for which the “effect of ligand on GST-ERID/EcR pull-down complex” value in assay [1] was “disrupted”. In assay [2], the “dissociation of the interaction between E52 and EcR by ligand” value is “not dissociated”; the “dissociation of the interaction between SMRT and EcR by ligand” value is reported as “not dissociated”.
